{"source": "patent US4028396A", "about": "“16,16-Spirocycloalkyl prostaglandin derivatives” (American Cyanamid Company, priority 1975, dated 1977)", "key": {"[1]": {"system": "bronchospasms elicited by 5-hydroxytryptamine", "test": "bronchodilator activity, Konzett procedure, 5-hydroxytryptamine bronchospasm", "assay_type": "in vivo, guinea pigs", "settings": "Cavia porcellus; three logarithmic cumulative intravenous doses; spasmogen 5-hydroxytryptamine", "experimental": "(§1) The compounds of this invention are useful as bronchodilators for the treatment of asthma and chronic bronchitis. Bronchodilator activity is determined in guinea pigs against bronchospasms elicited by intravenous injections of 5-hydroxytryptamine, histamine or acetylcholine by the Konzett procedure. [See J. Lulling, P. Lievens, F. El Sayed and J. Prignot, Arzneimittel-Forschung, 18, 955 (1968).]\n(§2) In Table A which follows bronchodilator activity for representative compounds of this invention against one or more of three spasmogenic agents is expressed as an ED50 determined from the results obtained with three logarithmic cumulative intravenous doses."}, "[2]": {"system": "bronchospasms elicited by histamine", "test": "bronchodilator activity, Konzett procedure, histamine bronchospasm", "assay_type": "in vivo, guinea pigs", "settings": "Cavia porcellus; three logarithmic cumulative intravenous doses; spasmogen histamine", "experimental": "as §1, §2"}, "[3]": {"system": "bronchospasms elicited by acetylcholine", "test": "bronchodilator activity, Konzett procedure, acetylcholine bronchospasm", "assay_type": "in vivo, guinea pigs", "settings": "Cavia porcellus; three logarithmic cumulative intravenous doses; spasmogen acetylcholine", "experimental": "as §1, §2"}, "[4]": {"system": "basal gastric acid secretion", "test": "inhibition of gastric acid secretion in the acute gastric fistula rat", "assay_type": "in vivo, Female Sprague-Dawley rats", "settings": "10 mg./kg., intraduodenal", "experimental": "The compounds of this invention are also useful as inhibitors of gastric acid secretion and peptic ulcer formation and may be used for the treatment of gastric hyperacidity, gastric erosion, and peptic ulcer. Inhibition of basal gastric acid secretion can be determined by the following procedure.\nFemale Sprague-Dawley rats weighing 140-160 grams are fasted in individual cages for 18-24 hours. The rats are then lightly anesthetized with ether and their front teeth extracted to avoid destruction of the plastic cannula. A midline incision is then made and the stomach and duodenum exposed. A flanged polyvinyl tube is inserted into the fundic portion of the stomach and secured with a purse string suture line using 4-0 Mersilene. The rat is then dosed by injection of the compound into the duodenum (1.0 ml. per 100 gram body weight). After dosing, the abdominal wall and skin are closed using metal wound clips. The rat is replaced in a cage containing a longitudinal slit to allow the polyvinyl tube to hang freely. An 8 ml. plastic collecting tube is attached to the flanged cannula and hangs freely below the cage. The first 30 minute sample is discarded designating this time as zero. The collecting tube is attached again and samples removed at the end of 60 and 120 minutes. The hourly samples are then transferred to a 15 ml. centrifuge and centrifuged for 5-10 minutes. Total and sediment volume are then recorded with supernatant volume being used as volume of secretion. A 1 ml. or less aliquot is then removed and placed in a 50 ml. beaker containing 10 ml. of distilled water. This sample is then titrated using 0.01N NaOH to pH 7.0 using a Beckman zeromatic pH meter. Volume, tritratable acidity (meq/L) and total acid output (ueg/hour) are recorded. Percent inhibition is determined by comparison with the appropriate control. Groups of three rats were used for preliminary testing, and groups of six rates were used for dose-response evaluations. All compounds are administered in a vehicle consisting of 0.5% methocel, 0.4% tween 80, and saline at a constant volume of 1 ml./100 gram rat. Samples are dispersed by sonification. Percent inhibition is calculated on basis of concurrent vehicle control.\nIn Table B which follows is given the effect on total acid output after 60 minutes (response A) and 120 minutes (response B) for various doses of representative compounds of this invention."}, "[5]": {"system": "basal gastric acid secretion", "test": "inhibition of gastric acid secretion in the acute gastric fistula rat", "assay_type": "in vivo, Female Sprague-Dawley rats", "settings": "oral"}, "[6]": {"system": "gastric acid output stimulated by gastrin tetrapeptide", "test": "gastric fistula dog, gastric acid output stimulated by gastrin tetrapeptide", "assay_type": "in vivo", "settings": "oral, 0.16 mg./kg., % of the control output", "experimental": "(§3) With the former agent a dose of 0.16 mg./kg. is sufficient to inhibit more than 50% of the control output."}, "[7]": {"system": "gastric acid output stimulated by histamine", "test": "gastric fistula dog, gastric acid output stimulated by histamine", "assay_type": "in vivo", "settings": "oral", "experimental": "as §3"}, "[8]": {"system": "smooth muscle", "settings": "cited from earlier work"}, "[9]": {"system": "systemic arterial blood pressure", "settings": "in vivo; cited from earlier work"}, "[10]": {"system": "mobilization of free fatty acids", "settings": "cited from earlier work"}, "[11]": {"settings": "cited from earlier work"}}}
{"smiles": "CCCCC1([C@@H](O)/C=C/[C@H]2CCC(=O)[C@@H]2CCCCCCC(=O)O)CCC1", "note": "(relative stereo) [9-oxo-15-epi-hydroxy-16,16-trimethylene-13-trans-prostenoic acid]", "values": [{"measurement": "ED50", "setting": "[1]", "value": 0.135, "unit": "mg/kg"}, {"measurement": "ED50", "setting": "[2]", "value": 0.014, "unit": "mg/kg"}, {"measurement": "ED50", "setting": "[3]", "value": 0.003, "unit": "mg/kg"}, {"measurement": "%-Inhibition of Total Acid Output", "setting": "[4]; after 60 min.", "value": 98, "unit": "%"}, {"measurement": "%-Inhibition of Total Acid Output", "setting": "[4]; after 120 min.", "value": 92, "unit": "%"}, {"measurement": "%-Inhibition of Total Acid Output", "setting": "[5]; 10 mg./kg., after 60 min.", "value": 85, "unit": "%"}, {"measurement": "%-Inhibition of Total Acid Output", "setting": "[5]; 10 mg./kg., after 120 min.", "value": 61, "unit": "%"}]}
{"smiles": "CCCCC1([C@H](O)/C=C/[C@H]2CCC(=O)[C@@H]2CCCCCCC(=O)O)CCC1", "note": "(relative stereo) [9-oxo-15-hydroxy-16,16-trimethylene-13-trans-prostenoic acid]", "values": [{"measurement": "ED50", "setting": "[1]", "value": 0.02, "unit": "mg/kg"}, {"measurement": "ED50", "setting": "[2]", "value": 0.0024, "unit": "mg/kg"}, {"measurement": "ED50", "setting": "[3]", "value": 0.048, "unit": "mg/kg"}, {"measurement": "%-Inhibition of Total Acid Output", "setting": "[4]; after 60 min.", "value": 98, "unit": "%"}, {"measurement": "%-Inhibition of Total Acid Output", "setting": "[4]; after 120 min.", "value": 75, "unit": "%"}, {"measurement": "%-Inhibition of Total Acid Output", "setting": "[5]; 2.5 mg./kg., after 60 min.", "value": 86, "unit": "%"}, {"measurement": "%-Inhibition of Total Acid Output", "setting": "[5]; 2.5 mg./kg., after 120 min.", "value": 83, "unit": "%"}]}
{"smiles": "CCCCC1([C@H](O)/C=C/[C@H]2[C@H](O)CC(=O)[C@@H]2C/C=C\\CCCC(=O)O)CCC1", "note": "(relative stereo) [11α,15-dihydroxy-9-oxo-16,16-trimethylene-5-cis,13-trans-prostadienoic acid]", "values": [{"measurement": "ED50", "setting": "[1]", "value": 0.0025, "unit": "mg/kg"}, {"measurement": "ED50", "setting": "[2]", "value": 0.0015, "unit": "mg/kg"}, {"measurement": "ED50", "setting": "[3]", "value": 0.0011, "unit": "mg/kg"}, {"measurement": "%-Inhibition of Total Acid Output", "setting": "[4]; after 60 min.", "value": 100, "unit": "%"}, {"measurement": "%-Inhibition of Total Acid Output", "setting": "[4]; after 120 min.", "value": 100, "unit": "%"}, {"measurement": "inhibition of gastric acid output stimulated by gastrin tetrapeptide", "setting": "[6]", "value": "more than 50%"}, {"measurement": "inhibition of the stimulation of gastric acid output by histamine", "setting": "[7]", "value": "will inhibit the stimulation of gastric acid output"}, {"measurement": "%-Inhibition of Total Acid Output", "setting": "[5]; 0.63 mg./kg., after 60 min.", "value": 30, "unit": "%"}, {"measurement": "%-Inhibition of Total Acid Output", "setting": "[5]; 0.63 mg./kg., after 120 min.", "value": 35, "unit": "%"}, {"measurement": "%-Inhibition of Total Acid Output", "setting": "[5]; 1.25 mg./kg., after 60 min.", "value": 40, "unit": "%"}, {"measurement": "%-Inhibition of Total Acid Output", "setting": "[5]; 1.25 mg./kg., after 120 min.", "value": 36, "unit": "%"}, {"measurement": "%-Inhibition of Total Acid Output", "setting": "[5]; 2.5 mg./kg., after 60 min.", "value": 87, "unit": "%"}, {"measurement": "%-Inhibition of Total Acid Output", "setting": "[5]; 2.5 mg./kg., after 120 min.", "value": 74, "unit": "%"}, {"measurement": "%-Inhibition of Total Acid Output", "setting": "[5]; 10 mg./kg., after 60 min.", "value": 100, "unit": "%"}, {"measurement": "%-Inhibition of Total Acid Output", "setting": "[5]; 10 mg./kg., after 120 min.", "value": 100, "unit": "%"}]}
{"smiles": "CCCCC1([C@@H](O)/C=C/[C@H]2[C@H](O)CC(=O)[C@@H]2C/C=C\\CCCC(=O)O)CCC1", "note": "(relative stereo) [11α,15-epi-dihydroxy-9-oxo-16,16-trimethylene-5-cis,13-trans-prostadienoic acid]", "values": [{"measurement": "ED50", "setting": "[1]", "value": 0.305, "unit": "mg/kg"}, {"measurement": "ED50", "setting": "[2]", "value": 0.048, "unit": "mg/kg"}, {"measurement": "ED50", "setting": "[3]", "value": 0.032, "unit": "mg/kg"}, {"measurement": "%-Inhibition of Total Acid Output", "setting": "[4]; after 60 min.", "value": 98, "unit": "%"}, {"measurement": "%-Inhibition of Total Acid Output", "setting": "[4]; after 120 min.", "value": 86, "unit": "%"}, {"measurement": "%-Inhibition of Total Acid Output", "setting": "[5]; 10 mg./kg., after 60 min.", "value": 32, "unit": "%"}, {"measurement": "%-Inhibition of Total Acid Output", "setting": "[5]; 10 mg./kg., after 120 min.", "value": 39, "unit": "%"}]}
{"smiles": "CCCCC1([C@@H](O)/C=C/[C@H]2CCC(=O)[C@@H]2CCCCCCC(=O)OCC)CCC1", "note": "(relative stereo) [ethyl 15-epi-hydroxy-9-oxo-16,16-trimethylene-13-trans-prostenoate]", "values": [{"measurement": "%-Inhibition of Total Acid Output", "setting": "[4]; after 60 min.", "value": 98, "unit": "%"}, {"measurement": "%-Inhibition of Total Acid Output", "setting": "[4]; after 120 min.", "value": 87, "unit": "%"}, {"measurement": "%-Inhibition of Total Acid Output", "setting": "[5]; 10 mg./kg., after 60 min.", "value": 77, "unit": "%"}, {"measurement": "%-Inhibition of Total Acid Output", "setting": "[5]; 10 mg./kg., after 120 min.", "value": 67, "unit": "%"}]}
{"smiles": "CCCCC1([C@H](O)/C=C/[C@H]2CCC(=O)[C@@H]2CCCCCCC(=O)OCC)CCC1", "note": "(relative stereo) [ethyl 15-hydroxy-9-oxo-16,16-trimethylene-13-trans-prostenoate]", "values": [{"measurement": "%-Inhibition of Total Acid Output", "setting": "[4]; after 60 min.", "value": 100, "unit": "%"}, {"measurement": "%-Inhibition of Total Acid Output", "setting": "[4]; after 120 min.", "value": 100, "unit": "%"}, {"measurement": "%-Inhibition of Total Acid Output", "setting": "[5]; 10 mg./kg., after 60 min.", "value": 48, "unit": "%"}, {"measurement": "%-Inhibition of Total Acid Output", "setting": "[5]; 10 mg./kg., after 120 min.", "value": 38, "unit": "%"}]}
{"smiles": "CCCCC[C@H](O)/C=C/[C@H]1[C@H](O)CC(=O)[C@@H]1CCCCCCC(=O)O", "note": "[PGE1]", "values": [{"measurement": "potency in causing smooth muscle stimulation", "setting": "[8]", "value": "extremely potent"}, {"measurement": "potency in causing vasodepression", "setting": "[9]", "value": "extremely potent"}, {"measurement": "potency as antilipolytic agent", "setting": "[10]", "value": "potent"}]}
{"smiles": "CCCCC[C@H](O)/C=C/[C@H]1[C@H](O)CC(=O)[C@@H]1C/C=C\\CCCC(=O)O", "note": "[prostaglandin E2]", "values": [{"measurement": "time within which the solution must be used", "setting": "[11]; room temperature", "value": "one day"}, {"measurement": "time within which saline solution should preferably be used", "setting": "[11]; saline solution stored at 40° C. (so in the source), preferably", "value": "2 to 3", "unit": "days"}, {"measurement": "time within which saline solution should be used", "setting": "[11]; saline solution stored at 40° C. (so in the source)", "value": "a week"}, {"measurement": "decrease in biological activity on storage", "setting": "[11]; ten days storage at 4° C., concentration 100 mg./ml.", "value": "significant decrease"}, {"measurement": "potency in causing smooth muscle stimulation", "setting": "[8]", "value": "extremely potent"}, {"measurement": "potency in causing vasodepression", "setting": "[9]", "value": "extremely potent"}, {"measurement": "potency as antilipolytic agent", "setting": "[10]", "value": "potent"}]}
